In patent publication US4107188A, “Pregnanes” (Hoffmann-La Roche Inc., priority 1977, dated 1978):

Tests used:
rat pancreatic lipase = target: T1, rat pancreatic lipase (Rattus norvegicus, UniProt P27657); assay: Inhibition of rat pancreatic lipase activity in vitro; type: biochemical; conditions: 14C-triolein emulsion, pH 8.6, 20 min. at 37° C
T1 sequence (P27657 17-465): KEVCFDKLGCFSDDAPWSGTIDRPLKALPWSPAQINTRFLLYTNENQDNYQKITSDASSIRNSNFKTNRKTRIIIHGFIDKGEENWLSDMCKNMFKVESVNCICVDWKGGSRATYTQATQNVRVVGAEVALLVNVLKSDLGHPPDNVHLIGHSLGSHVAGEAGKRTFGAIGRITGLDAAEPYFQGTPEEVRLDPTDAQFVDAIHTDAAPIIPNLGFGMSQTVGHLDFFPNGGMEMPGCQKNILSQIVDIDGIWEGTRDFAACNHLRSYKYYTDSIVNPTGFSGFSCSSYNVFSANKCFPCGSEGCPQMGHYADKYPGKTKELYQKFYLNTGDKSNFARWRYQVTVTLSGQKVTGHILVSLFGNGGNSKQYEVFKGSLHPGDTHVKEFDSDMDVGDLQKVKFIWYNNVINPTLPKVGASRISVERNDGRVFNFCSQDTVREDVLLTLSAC
Description: Dietary long-chain triglycerides must be hydrolyzed by pancreatic lipase in the duodenum before absorption can occur. […] The capacity of compounds of formula I to inhibit rat pancreatic lipase in vitro is seen by the action of the following compounds:
The ability of compounds to inhibit rat pancreatic lipase is determined by analyzing the nmoles of free fatty acid [oleic acid] released from [^14 C]-triolein. Compounds of A and B are added to an emulsion consisting of: 200,000 dmp ^14 C-triolein, 7.5 mg triolein, 0.75 mg sodium taurocholate, 15 mg bovine serum albumin and 0.9 ml 0.2 M tris-HCl - 0.15 M NaCl, pH 8.6, per assay. Water and/or pancreatic lipase is added to make an assay volume of 1.0 ml. The emulsion is incubated for 20 min. at 37° C in a shaking water bath. The reaction is stopped by the addition of isopropanol; H2 SO4 (40:1). The lipids are extracted twice with 3 ml volumes of hexane. The liberated fatty acids are extracted with 2 ml of 0.1 N aqueous KOH in 50% methanol. A 1 ml aliquot of the KOH layer is paced in a scintillation vial with 10 ml of 2,5-bis-2-(5-tertiarybutyl benzoxazolyl)thiophene. The radioactivity is determined by a scintillation counter. Data are expressed as nmoles free fatty acid [oleic acid] releated.

[1] = 4-14C-cholesterol appearance in thoracic duct lymph of rats after oral administration; type: in vivo, female albino rats (Charles River); conditions: 100 mg orally, female albino rats, vs Na-TC control
Description: The lowering of the cholesterol levels in mammals by the administration of the compound of formula I-B can be seen from the fact that when 100 mg of 7-(3alpha, 12alpha-dihydroxy-5beta-pregnane-20-yl)-3,5-heptadienoic acid was administered orally to female albino rats, the cholesterol level in the lymph was decreased after administration by 60% over the first 8 hours and 91% over the next 9 to 24 hr. period after administration as compared to the control. In this procedure, female albino rats (Charles River), weighing 300 ± 10 g were kept on a Purina chow diet ad libitum until the time of operation. […] This preparation enabled the production of lymph at a constant rate, the infusion of a bile salt, and the simultaneous collection of bile. All animals received, after operation, a continuous duodenal infusion of sodium taurocholate (Na-TC) in 0.85% NaCl. One day after operation, the rats were given, by stomach intubation, an emulsion containing about 4% triolein, 20 μC of 4-^14 C-cholesterol (Specific Activity 61.7 mC/mM, 159 μ C/mg), 2 mg of cholesterol, in addition to protein, carbohydrate, and saline. Both the Na-TC and the cholesterol carrier employed gave a single spot on either thin layer or glass fiber chromatograph so no further purification was attempted. […] An aliquot of the lipid extract was placed on a small piece of glass fiber paper and counted. […]

Structure (SMILES)	Ki (rat pancreatic lipase) [mM]	decrease of cholesterol level in the lymph as compared to the control ([1]; 9 to 24 hr. period after administration) [%]	decrease of cholesterol level in the lymph as compared to the control ([1]; over the first 8 hours after administration) [%]
CC(CCCCC(=O)O)[C@H]1CC[C@H]2[C@@H]3CC[C@@H]4C[C@H](O)CC[C@]4(C)[C@H]3C[C@H](O)[C@]12C (stereo partly drawn) [Compound B, 5-(3α,12α-dihydroxy-5βpregnane-20-yl)pentanoic acid]	9		
C[C@H](C/C=C/C=C/CC(=O)O)[C@H]1CC[C@H]2[C@@H]3CC[C@@H]4C[C@H](O)CC[C@]4(C)[C@H]3C[C@H](O)[C@]12C [Compound A, 7(3α,12α-dihydroxy-5β-pregnane-20-yl)-3,5-heptadienoic acid]	1	91	60
